Where “and” joins values, the source holds several entries; their conditions need not be identical. Equal entries are not always repeated.
What was measured:
[1] = system: C3H/HeJ mouse model of AA; assay: Hair growth (Hair Index Score) in C3H/HeJ graft-induced AA mice; format: in vivo; settings: for Hair index score (% area x score, 0 to 3): individual mice and mean±SD
Method: Female C3H/HeJ graft‐induced mice were used as a preclinical model of Alopecia Areata (AA) according to previous publications.[45], [46], [47] Healthy C3H/HeJ and mice with fully developed AA (16–24 weeks after induction of disease) were monitored by means of body weight and hair index score on a weekly basis for 12 weeks, with free access to food and water (Healthy and AA groups, respectively).
Hair growth was evaluated using a scoring index (Hair Index Score, HIS). A score from 0 to 3 (0 = no fur, 1 = stubble, short broken hairs, 2 = sparse, intermediate length hairs, 3 = normal length and density hairs) was taken times the surface area of the mouse with each respective score (dorsal area = 50%, ventral area = 50%).
12 mice were given once daily servings of Cmpd A for free eating at approximately 100 mg/kg (compound dissolved in 10 ml tap water and mixed with 5 g grounded R70 standard rodent chow from Lantmännen, Sweden) for 4 weeks. Typically, these servings were finished within 2 h. Six mice were terminated at the end of the treatment period, blood and skin taken for determination of drug concentration and skin sampled for histopathological evaluation (see below, these mice are representing the systemic JAK1 inhibition group in histopathological evaluations). Skin biopsies for mRNA expression and blood was sampled from the other 6 mice where after these mice were followed off treatment for an additional 8 weeks when terminal samples were taken (8w off Tx group).
Another set of 6 mice were treated topically on the right side of their back with Cmpd B (0.1% cream formulation, Eucerin Aquaporin rich) for 12 weeks (local JAK1 inhibition group). Initially, twice weekly for 2 weeks followed by once weekly due to high tissue retention. Plasma exposure was evaluated during the course of the study as well as at termination when also skin was sampled for exposure, histopathological evaluation and mRNA expression.
The aim of the study was to achieve similar skin exposures by both routes of administration but only systemic exposure after oral administration. […] Blood, skin, lymph nodes and spleens were collected at termination for evaluation of exposure, mRNA expression, histopathology (RNAScope) and cell differentials (flow cytometry). Untreated healthy and alopecic mice served as controls (n = 6).

IL‐4, STAT6‐Luc = assay: IL-4-induced JAK-STAT6-luciferase assay in U937 monocytes; format: cell-based; settings: Homo sapiens, U-937, interleukin at EC80
[2] = Unbound fraction in tissue from rearranged Gillette equation; format: in vitro ADME, mouse
Excerpt: (§1) Detailed description in Supplementary materials.

[3] = Solubility in phosphate buffer; format: physicochemical; settings: pH 7.4, aqueous buffer
Excerpt: TABLE 1 In vitro potency and selectivity of JAK inhibitors | column: Solubility (μM) ^c

[4] = Caco permeability and efflux; format: in vitro ADME; settings: human, Caco-2
Excerpt: TABLE 2 In vitro and in vivo DMPK properties of Cmpd A, B & C | column: In vitro mouse & physical chemical properties / Caco AtB 10^−6 cm/s/Efflux ratio ^b

[5] = Plasma protein binding by equilibrium dialysis; format: in vitro ADME; settings: mouse plasma
Excerpt: as §1

[6] = Mouse pharmacokinetics i.v./p.o.; format: in vivo; settings: plasma, male C57Bl6 mice
Method: as §1
Pharmacokinetics and evaluation of compound exposures: Male C57/BL mice were obtained from Si Bei Fu and weighed approximately 20-30 grams (7-9 weeks) at the start of the pharmacokinetic study. Animals had free access to food and water during the course of the experiment. Dose formulations were prepared on the study day and were stirred at room temperature for at least 15 minutes prior dosing and during the administration event. Cmpd A, B and C were dosed at 0.5-1 mg/kg i.v. and 1-300 mg/kg p.o. The dorsal metatarsal vein was used for sampling and typically 0.02 mL blood was withdrawn. Blood was taken at 2, 5, 15, 45 min, 2, 4, 8, 24 hours post the i.v. dose and at 15, 30 min, 1, 2, 4, 8, 24 hours post the p.o. dose. Blood of each sample was transferred into plastic micro centrifuge tubes containing 2 μL of 1000 IU Heparin-Na anticoagulant. These tubes were then inverted several times and placed on wet ice prior to centrifugation at 10,000 rpm for 2 minutes at 4°C in order to collect plasma. Plasma samples were stored at -75±15°C prior analysis. Compound concentrations were analyzed using a LC-MS/MS method (see below).
Effective T1/2 equals Ln2 x Vss/CL.

**Q.** Which results are given for `Cc1cnc(Nc2cccnc2F)nc1-c1c[nH]c2c(NC(=O)[C@@H](C)N3CCN(C)CC3)cccc12` [Cmpd A]?
**A.** remission after treatment cessation ([1]; AA mice, 4 weeks treatment, followed 8 weeks off treatment): relapsed after treatment cessation; hair growth, result in words ([1]; AA mice, oral daily servings (systemic exposure)): quick and complete restoration of hair growth; time to complete regrowth (Hair Index Score) ([1]; AA mice, oral treatment, n = 6 per group): ≤ 4 weeks; Hair index score (% area x score, 0 to 3) ([1]; Systemic JAK1i group terminated at w4 (oral ~100 mg/kg daily), w0, n=6, 100 mg/kg): 0 and 20; Hair index score (% area x score, 0 to 3) ([1]; Systemic JAK1i group terminated at w4 (oral ~100 mg/kg daily), w0, n=6, 100 mg/kg, mean): 3±8; Hair index score (% area x score, 0 to 3) ([1]; Systemic JAK1i group terminated at w4, w1): 0 and 15 and 10; Hair index score (% area x score, 0 to 3) ([1]; Systemic JAK1i group terminated at w4, w1, mean): 7±7; Hair index score (% area x score, 0 to 3) ([1]; Systemic JAK1i group terminated at w4, w2): 160 and 170 and 180 and 120 and 190; Hair index score (% area x score, 0 to 3) ([1]; Systemic JAK1i group terminated at w4, w2, mean): 163±24; Hair index score (% area x score, 0 to 3) ([1]; Systemic JAK1i group terminated at w4, w3): 280 and 285 and 290 and 250 and 295; Hair index score (% area x score, 0 to 3) ([1]; Systemic JAK1i group terminated at w4, w3, mean): 280±16; Hair index score (% area x score, 0 to 3) ([1]; Systemic JAK1i group terminated at w4, w4): 300; Hair index score (% area x score, 0 to 3) ([1]; Systemic JAK1i group terminated at w4, w4, mean): 300±0; Hair index score (% area x score, 0 to 3) ([1]; Systemic JAK1i group treated 4 weeks then followed off treatment, w0, n=6): 125 and 50 and 20 and 90; Hair index score (% area x score, 0 to 3) ([1]; Systemic JAK1i group treated 4 weeks then followed off treatment, w0, n=6, mean): 71±38; Hair index score (% area x score, 0 to 3) ([1]; Systemic JAK1i group treated 4 weeks then off treatment, w1): 125 and 50 and 20 and 90; Hair index score (% area x score, 0 to 3) ([1]; Systemic JAK1i group treated 4 weeks then off treatment, w1, mean): 71±38; Hair index score (% area x score, 0 to 3) ([1]; Systemic JAK1i group treated 4 weeks then off treatment, w2): 170 and 200 and 140 and 180 and 190; Hair index score (% area x score, 0 to 3) ([1]; Systemic JAK1i group treated 4 weeks then off treatment, w2, mean): 180±23; Hair index score (% area x score, 0 to 3) ([1]; Systemic JAK1i group treated 4 weeks then off treatment, w4): 285 and 295 and 300; Hair index score (% area x score, 0 to 3) ([1]; Systemic JAK1i group treated 4 weeks then off treatment, w4, mean): 295±5; Hair index score (% area x score, 0 to 3) ([1]; Systemic JAK1i group treated 4 weeks then off treatment, w8 (4 weeks off)): 245 and 200 and 210 and 195 and 270 and 75; Hair index score (% area x score, 0 to 3) ([1]; Systemic JAK1i group treated 4 weeks then off treatment, w8 (4 weeks off), mean): 199±67; Hair index score (% area x score, 0 to 3) ([1]; Systemic JAK1i group treated 4 weeks then off treatment, w12 (8 weeks off)): 90 and 60 and 85 and 45 and 205 and 35; Hair index score (% area x score, 0 to 3) ([1]; Systemic JAK1i group treated 4 weeks then off treatment, w12 (8 weeks off), mean): 87±62; IC50 (IL‐4, STAT6‐Luc): 84 nM; f u, tissue ([2]; mouse, from rearranged Gillette equation, V blood 0.07 L/kg, V tissue 0.6 L/kg): 0.003; unbound fraction in plasma compared to skin ([2]; skin value estimated from the Gillette equation): ~10 fold; solubility [3]: > 337 µM; efflux ratio ([4]; Efflux ratio = BtA/AtB): 1; Papp A→B ([4]; read-out: Caco AtB): 21 ×10⁻⁶ cm/s; f u, plasma [5]: 0.038; clearance ([6]; iv, i.v. 0.5-1.0 mg/kg): 32 mL/min/kg; Vd ([6]; iv, i.v. 0.5-1.0 mg/kg, read-out: V ss): 9.1 L/kg; bioavailability ([6]; po, p.o. 300 (A), 1.0 (B), 2.0 (C) mg/kg, read-out: Oral % F): 100%
